According to patent publication US8455548B2, “Method of treating sensorimotor disorders with alpha-2 adrenergic receptor agonists” (Allergan, Inc., priority 2007, dated 2013):
Marks after values point to notes of the source that are not given here.

Columns and labels:
[1] = system: PPI disrupted by psychostimulants; assay: Prepulse inhibition (PPI) of the startle response disrupted by psychostimulants; assay type: in vivo, Male Sprague-Dawley rats; details: for % PPI PP3: pre-pulse 3 dB above background; for % PPI PP6: pre-pulse 6 dB above background; for % PPI PP12: pre-pulse 12 dB above background
Experimental: Male Sprague-Dawley rats were treated with Drug 1 (IP) followed 20 minutes later by Drug 2 (IP or SC as indicated in the methods). Ten minutes following administration of Drug 2 (except in the case of apomorphine where animals were immediately tested post-apomorphine), rats were placed in the startle chamber and allowed 5 minutes to acclimate with 65-dB background white noise. The acclimation period was followed by a ˜15 minute test session during which time rats were presented with 40 ms 120 dB startle pulses alone or preceded 100 ms by a pre-pulse 3, 6, or 12 dB above background. These four types of active stimuli were presented in pseudorandom order along with no-stimulation trials to assess baseline activity throughout testing. An average of 20 s separated each trial type. The maximum startle magnitude was measured for every trial type. PPI for each animal was calculated as the percentage startle magnitude to the pre-pulse+pulse or no-stimulation trials relative to the pulse-alone startle magnitude. * and ** indicate differences relative to vehicle+vehicle-treated animals (P<0.05 and P<0.01, respectively).
Prepulse inhibition of the startle response. Sprague Dawley male rats (˜250 g-300 g) are used (n=8/group). Rats are administered drug 1 (vehicle, Compound A, Compound B, or clonidine) followed 20 minutes later by amphetamine (2 mg/kg, s.c.), apomorphine (0.5 mg/kg s.c), PCP (2 mg/kg i.p.) or vehicle (0.9% NaCl, s.c.). Either immediately (apomorphine) or 10 minutes (amphetamine, PCP, or vehicle) following injection of drug 2, animals are placed in the SR-Lab startle chamber (San Diego Instruments, San Diego Calif.). Each rat is acclimated to the chamber for 5 minutes with 65 dB background noise. This acclimation period is followed by a ˜15 minute PPI test session where rats are presented with 120 dB startle pulses without a pre-pulse or pulses preceded by a pre-pulse of 3, 6, or 12 dB above background noise. These active stimuli are presented in pseudorandom order along with no-sound trials, with an average of 20 sec separating each trial (range 5-27 seconds). A sensor in the chamber records the startle magnitude following all stimuli presented. % PPI represents the percentage startle magnitude to the pre-pulse+pulse or no-stim trials relative to the pulse-alone startle magnitude.
The alpha 2B compounds were administered i.p. or p.o., PCP was administered i.p., and apomorphine and amphetamine were administered s.c.

[2] = system: amphetamine-induced stereotypy; assay: Amphetamine-induced stereotypy (open field locomotor behavior); assay type: in vivo, C57B/6 male mice; details: for AMBULATIONS: indicative of hyperactivity; for FINE MOVEMENTS: scored 60 min post-amphetamine, indicative of stereotypy; for inhibition of amphetamine-induced stereotypy (in words): high-dose psychostimulant administration
Experimental: C57B/6 male mice were placed in an open field apparatus and allowed to habituate for 15-30 minutes. Compounds A or B were administered PO at 0, +15, or +30 minutes relative to amphetamine (8 mg/kg) administration (Compound B was also administered 15 minutes pre-amphetamine), and locomotor behavior was scored for an additional 60 minutes post-amphetamine. Amphetamine was administered IP. Locomotion was separated into “fine movements” (indicative of stereotypy) and “ambulations” (indicative of hyperactivity).
Amphetamine induced stereotypy. C57B/6 male mice were placed in an open field apparatus and allowed to habituate for 15-30 minutes. Compounds A or B were administered at 0, +15, or +30 minutes relative to amphetamine (8 mg/kg) administration (Compound B was also administered 15 minutes pre-amphetamine), and locomotor behavior was scored for an additional 60 minutes post-amphetamine. Locomotion was separated into “fine movements” (indicative of stereotypy) and “ambulations” (indicative of hyperactivity).

[3] = molecular target: T1, alpha-2A receptor (Homo sapiens, UniProt P08913); assay: Alpha-adrenergic receptor activation (efficacy relative to brimonidine, e.g. RSAT); assay type: cell-based; details: lacks significant activity = less than 40% of the efficacy of brimonidine at the alpha-2A receptor subtype
T1 sequence (P08913 1-465): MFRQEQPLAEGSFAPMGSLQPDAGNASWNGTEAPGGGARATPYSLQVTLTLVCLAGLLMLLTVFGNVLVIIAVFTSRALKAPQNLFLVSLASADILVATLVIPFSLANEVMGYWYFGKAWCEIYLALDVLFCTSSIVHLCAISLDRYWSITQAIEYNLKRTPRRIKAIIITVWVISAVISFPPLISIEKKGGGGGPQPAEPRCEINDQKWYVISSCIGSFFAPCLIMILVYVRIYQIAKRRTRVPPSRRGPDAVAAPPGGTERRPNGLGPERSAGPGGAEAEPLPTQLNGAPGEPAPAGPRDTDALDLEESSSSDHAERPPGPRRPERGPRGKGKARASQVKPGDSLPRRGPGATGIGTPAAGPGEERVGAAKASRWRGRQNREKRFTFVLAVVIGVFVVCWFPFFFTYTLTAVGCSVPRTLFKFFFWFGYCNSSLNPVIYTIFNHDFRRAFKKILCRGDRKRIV
Excerpt: The methods of the present invention use alpha-2 agonists lacking significant activity at the alpha-2A receptor subtype. An agonist lacks significant alpha-2A receptor activity if the agonist has less than 40% of the efficacy of brimonidine at the alpha-2A receptor subtype. Compounds of the invention include, therefore, alpha-2B receptor agonists lacking significant alpha-2A activity; alpha 2B/2C receptor agonists lacking significant alpha-2A activity; and alpha-2C receptor agonists lacking significant alpha-2A activity.
Efficacy, also known as intrinsic activity, is a measure of maximal receptor activation achieved by a compound and can be determined using any accepted assay of alpha-adrenergic receptor activation, such as a cAMP or Receptor Selection and Amplification Technology (RSAT). […]
The RSAT assay measures receptor-mediated loss of contact inhibition resulting in selective proliferation of receptor-containing cells in a mixed population of confluent cells. The increase in cell number is assessed with an appropriate detectable marker gene such as beta-galactosidase, if desired, in a high throughput or ultra high throughput assay format. […]
As an example, an RSAT assay can be performed essentially as follows. […] The EC50 and maximal effect (i.e., efficacy) of each drug at each receptor is determined.

[4] = Drug 1 30 ug/kg, Drug 2 Apo (0.5 mg/kg)
[5] = Drug 1 30 ug/kg, Drug 2 PCP (2 mg/kg)
[6] = Drug 1 0.03 mg/kg, Drug 2 Amph (2 mg/kg)
[7] = compound PO at 0 min post-amphetamine (8 mg/kg IP)
[8] = compound PO at 15 min post-amphetamine (8 mg/kg IP)
[9] = compound PO at 30 min post-amphetamine (8 mg/kg IP)
[10] = Drug 1 100 ug/kg, Drug 2 Amph (2 mg/kg)
[11] = compound PO at -15 min relative to amphetamine (8 mg/kg IP)
[12] = Drug 1 10 ug/kg, Drug 2 Amph (2 mg/kg)
[13] = Drug 1 30 ug/kg, Drug 2 Amph (2 mg/kg)

Structure (SMILES) | % PPI PP3 [1, 4] [%] | % PPI PP6 [1, 4] [%] | % PPI PP12 [1, 4] [%] | % PPI PP3 [1, 5] [%] | % PPI PP6 [1, 5] [%] | % PPI PP12 [1, 5] [%] | AMBULATIONS [2, 7] | FINE MOVEMENTS [2, 7] | AMBULATIONS [2, 8] | FINE MOVEMENTS [2, 8] | AMBULATIONS [2, 9] | FINE MOVEMENTS [2, 9] | inhibition of amphetamine-induced stereotypy (in words) [2] | % PPI PP3 [1, 10] [%] | % PPI PP6 [1, 10] [%] | % PPI PP12 [1, 10] [%] | alpha-2A receptor activity (in words) [3] | further results
Clc1cccc(Cl)c1N=C1NCCN1 [Clonidine, reference compound] | 20.0 ± 10.6 | 31.5 ± 11.0 | 24.5 | 31.7 ± 13.5 | 30.1 ± 13.1 | 53.7 | – | – | – | – | – | – | – | – | – | – | – | % PPI PP3 [1, 6]: 21.8 ± 9.1%; % PPI PP6 [1, 6]: 35.5 ± 8.6%; % PPI PP12 [1, 6]: 51.3%
OCCNC(=S)NCc1cccc(Cl)c1F [Compound A] | 38.5 ± 7.7 | 53.8 ± 6.2 | 58.9 | 40.2 ± 7.5 | 50.6 ± 5.5 | 62.9 | 6338.0 ± 714.1 | 810.1 ± 112.5^⋄ | 14056.6 ± 708.7 | 1312.9 ± 205.2^⋄ | 7494.6 ± 612.3 | 2581.3 ± 359.1 | effectively inhibit stereotypy | 38.6 ± 7.1 | 50.2 ± 4.7 | 68.5 | lack significant alpha-2A receptor activity | restoration of PPI disrupted by psychostimulants (in words) ([1]; amphetamine, apomorphine, and phencyclidine): significantly inhibited the disruption of PPI
O=C1c2ccccc2CC[C@H]1Cc1c[nH]c(=S)[nH]1 [Compound B] | – | – | – | – | – | – | 9954.8 ± 1042.9 | 736.7 ± 103.4^⋄ | 7226.2 ± 457.3 | 1096.3 ± 79.2^⋄ | 8453.8 ± 461.7 | 1284.8 ± 48.8^⋄ | effectively inhibit stereotypy | 34.5 ± 5.7 | 45.3 ± 7.4 | 67.0 | lack significant alpha-2A receptor activity | AMBULATIONS [2, 11]: 7258.8 ± 672.4; FINE MOVEMENTS [2, 11]: 937.3 ± 47.3^⋄; % PPI PP3 [1, 12]: 28.2 ± 7.4%; % PPI PP6 [1, 12]: 30.9 ± 6.2%*; % PPI PP12 [1, 12]: 46.9%; % PPI PP3 [1, 13]: 25.3 ± 9.2%; % PPI PP6 [1, 13]: 48.6 ± 5.3%; % PPI PP12 [1, 13]: 60.0%
